# Reference: publication PMC7413254 (Nature Communications, 2020)
# Where two headings read alike, the source gives them in different places.
# Tests used:
# PfCRT = test: Potential co-substrates tested for influx of VF-6 via PfCRT into the oocyte; assay type: cell-based, Plasmodium falciparum; design: key: X: Compounds that have been tested as potential co-substrates but are not required for influx of VF-6 via PfCRT into the oocyte
# PfCRT^3D7 [1] = biological target: T1, PfCRT^3D7 (Plasmodium falciparum, UniProt Q8IBZ9); test: cell-based; assay type: cell-based; conditions: PfCRT3D7 oocytes, normalised to oocyte type control
# Summary of the method: (§1)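 Transport measured in Xenopus oocytes expressing the transporters, 1.5 h at 27.5 °C in ND96 pH 5.5 unless noted. For trans-stimulation, VF-6 injected in 25 nL ND96 at pH 5.0–7.0 or Na^+-free (choline) buffer; intracellular levels based on ~400 nL oocyte volume. Ten oocytes per treatment, ≥4 experiments.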
# PfCRT^Dd2 [2] = biological target: T2, PfCRT^Dd2 (Plasmodium falciparum, UniProt Q9N623, A220S/I356T/K76T/M74I/N326S/N75E/Q271E/R371I); test: cell-based; assay type: cell-based; conditions: for PfCRT-mediated [3H]CQ transport, trans-stimulation (% PfCRTDd2 control): PfCRTDd2 oocytes, normalised to oocyte type control; for [3H]CQ transport (% PfCRTDd2 control), trans-stimulation, PfCRTDd2: PfCRT-mediated component (background subtracted), mean ± SEM, SEM
# Summary of the method: as §1
# PfCRT^Ecu1110 [3] = biological target: T3, PfCRT^Ecu1110 (Plasmodium falciparum, UniProt Q9N623, A220S/I356L/K76T/N326D); test: cell-based; assay type: cell-based; conditions: for PfCRT-mediated [3H]CQ transport, trans-stimulation (% PfCRTEcu1110 control): PfCRTEcu1110 oocytes, normalised to oocyte type control; for [3H]CQ transport (% PfCRTDd2 control), trans-stimulation, PfCRTEcu1110: PfCRT-mediated component (background subtracted), sheet title says normalised to PfCRTDd2 control, mean ± SEM, SEM
# Summary of the method: as §1
# PfCRT^Dd2 [4] = biological target: T2, PfCRT^Dd2; test: [3H]CQ uptake into Xenopus oocytes, cis-inhibition by unlabelled solute; assay type: cell-based; conditions: PfCRTDd2 oocytes, background [3H]CQ accumulation subtracted, normalised to oocyte type control
# Summary of the method: (§2)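 Radioactivity accumulated per oocyte, read by liquid scintillation after 10% SDS lysis, served as the uptake measure. Incubations ran 1.5 h at 27.5 °C in ND96 at pH 5.5, matching digestive-vacuole acidity.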
# PfCRT^Ecu1110 [5] = biological target: T3, PfCRT^Ecu1110; test: as above; assay type: cell-based; conditions: for PfCRT-mediated [3H]CQ transport, cis-inhibition (% PfCRTEcu1110 control): PfCRTEcu1110 oocytes, background [3H]CQ accumulation subtracted, normalised to oocyte type control; for [3H]CQ transport (% PfCRTEcu1110 control), cis-inhibition, PfCRTEcu1110: PfCRT-mediated component (background subtracted), sheet title says normalised to PfCRTDd2 control, mean ± SEM, SEM
# Summary of the method: as §2
# PfCRT^3D7 [6] = biological target: T1, PfCRT^3D7; test: cell-based; conditions: mean ± SEM, n = 5, SEM
# Method: (§3) The characterisation of [^3H]VF-6 transport via 23 different field and laboratory-derived isoforms of PfCRT was undertaken with oocytes two days post-cRNA-injection (Figs. 3a–j, 4; Supplementary Fig. 2). The oocytes were injected with 25 nL of ND96 buffer (pH 5.5) supplemented with [^3H]VF-6 and unlabelled VF-6 to achieve estimated intracellular concentrations of 1.4 and 200 μM, respectively. Ten oocytes that had resealed at the injection site were transferred to a 5 mL polystyrene round bottom tube (In Vitro Technologies) and washed with 3.5 mL of ND96 buffer before being transferred to separate wells of a white 96-well plate (PerkinElmer). This treatment served to establish the amount of radioactivity within the oocytes immediately prior to the commencement of the transport assay. Another 10 resealed oocytes were transferred to a 5 mL tube and washed with 3.5 mL of ND96 buffer. […] The assay was terminated by removing the reaction buffer with a pipette and washing the oocytes twice with 3.5 mL of ice-cold ND96 buffer. Each oocyte was transferred to a separate well of a white 96-well plate. The oocytes were lysed by the addition of 20 μL of 10% (w/v) SDS and overnight incubation at room temperature. The lysed oocyte was then combined with 150 μL of MicroScint-40 microscintillant (PerkinElmer), the plate covered with a TopSeal-A (PerkinElmer), and the radioactivity measured with a MicroBeta^2 microplate liquid scintillation analyser (PerkinElmer). VF-6 transport was calculated by subtracting the amount of radioactivity (measured in counts per minute) present within the oocytes at the end of the incubation from that measured in the oocytes sampled immediately before the commencement of the assay. The pH-dependence of transport (Fig. 3c) was determined by injecting the oocytes with [^3H]VF-6 suspended in 25 nL ND96 buffer adjusted to pH 5.0, 5.5, 6.0 or 7.0, which corresponded to the injection of 2.5–250 fmol of H^+. The dependence of [^3H]VF-6 transport on Na^+ or Cl^− was examined by injecting the oocytes with [^3H]VF-6 suspended in the control ND96 buffer (pH 5.5) or a version of this buffer that lacked either Na^+ or Cl^− (Supplementary Fig. 2). […] The dependence of peptide transport on Ca^2+ was determined by injecting the oocytes with [^3H]VF-6 suspended in ND96 buffers that contained different concentrations of Ca^2+ (0–5 mM; Supplementary Fig. 2). […] The dependence of PfCRT-mediated transport on the membrane potential was examined by using (1) Na^+ ionophore III in conjunction with the Na^+ gradients listed in Supplementary Data 7 and (2) Cl^− ionophore III in conjunction with the Cl^− gradients listed in Supplementary Data 7 to clamp the membrane potential of the oocyte from −80 to +80 mV. […] The kinetic parameters for VF-6 transport via different isoforms of PfCRT (Figs. 3e and 4a) were determined in SigmaPlot Windows Version 11.0 by a least-squares fit of the Michaelis–Menten equation to the data.
# (§4) A subset of assays measured the ability of solutes known to interact with PfCRT to either cis-inhibit, trans-inhibit or trans-stimulate [^3H]VF-6 transport. These experiments involved adding these solutes to either the cis- or trans-side of the membrane relative to [^3H]VF-6. […] At least five independent experiments were performed (on different days and using oocytes from different frogs), and within each experiment measurements were made from ten oocytes per treatment.
# PfCRT^Dd2 [7] = biological target: T2, PfCRT^Dd2; test: cell-based; conditions: mean ± SEM, n = 5, SEM
# Method: as §3, §4
# PfCRT^Ecu1110 [8] = biological target: T3, PfCRT^Ecu1110; test: cell-based; conditions: mean ± SEM, n = 5, SEM
# Method: as §3, §4
# [9] = [test solute]i = 5 mM (intracellular)
# [10] = [test solute]i = 45 mM (intracellular; 30 mM for some solutes due to solubility)
# [11] = [test solute]i = 5 mM (injected)
# [12] = [test solute]i = 45 mM (30 mM for some solutes due to solubility)
# T1 sequence (Q8IBZ9 59-398): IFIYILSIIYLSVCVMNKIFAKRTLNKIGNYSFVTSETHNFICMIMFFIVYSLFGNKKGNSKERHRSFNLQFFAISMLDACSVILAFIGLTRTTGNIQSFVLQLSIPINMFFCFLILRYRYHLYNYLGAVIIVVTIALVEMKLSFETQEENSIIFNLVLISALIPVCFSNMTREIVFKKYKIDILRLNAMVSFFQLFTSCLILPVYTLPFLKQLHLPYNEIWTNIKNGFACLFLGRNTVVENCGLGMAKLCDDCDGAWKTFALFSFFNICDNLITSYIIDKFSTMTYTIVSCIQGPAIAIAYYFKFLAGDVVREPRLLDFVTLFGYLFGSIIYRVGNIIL
# T3 sequence (Q9N623 whole entry A220S/I356L/K76T/N326D): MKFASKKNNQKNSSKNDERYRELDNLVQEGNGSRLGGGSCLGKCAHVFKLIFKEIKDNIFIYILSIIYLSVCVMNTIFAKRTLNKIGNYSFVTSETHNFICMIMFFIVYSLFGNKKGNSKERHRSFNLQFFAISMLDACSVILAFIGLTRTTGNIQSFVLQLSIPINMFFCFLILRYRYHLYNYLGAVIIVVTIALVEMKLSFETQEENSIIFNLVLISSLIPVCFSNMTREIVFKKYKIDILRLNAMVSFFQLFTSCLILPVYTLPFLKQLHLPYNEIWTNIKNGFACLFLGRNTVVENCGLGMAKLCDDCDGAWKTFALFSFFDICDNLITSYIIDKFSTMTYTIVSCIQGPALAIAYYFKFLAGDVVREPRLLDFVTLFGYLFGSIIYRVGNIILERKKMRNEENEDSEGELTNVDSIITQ
# T2 sequence (Q9N623 whole entry A220S/I356T/K76T/M74I/N326S/N75E/Q271E/R371I): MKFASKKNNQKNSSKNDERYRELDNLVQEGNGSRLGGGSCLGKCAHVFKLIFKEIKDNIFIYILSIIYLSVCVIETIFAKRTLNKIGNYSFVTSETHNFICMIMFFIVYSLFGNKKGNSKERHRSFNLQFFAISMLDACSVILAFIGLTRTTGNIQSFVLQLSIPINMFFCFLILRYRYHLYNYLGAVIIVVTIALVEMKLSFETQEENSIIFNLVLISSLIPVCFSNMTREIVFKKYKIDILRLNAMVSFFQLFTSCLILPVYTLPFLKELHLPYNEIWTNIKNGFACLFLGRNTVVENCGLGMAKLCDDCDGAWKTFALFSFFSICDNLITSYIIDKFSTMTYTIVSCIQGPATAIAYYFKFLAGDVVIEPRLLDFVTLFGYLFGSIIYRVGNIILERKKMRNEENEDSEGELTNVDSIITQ
Molecule,Tested as potential co-substrate but not required for influx of VF-6 via PfCRT into the oocyte (PfCRT),"PfCRT-mediated [3H]CQ transport, trans-stimulation (% PfCRT3D7 control) (PfCRT^3D7 [1]; [9])","PfCRT-mediated [3H]CQ transport, trans-stimulation (% PfCRT3D7 control) (PfCRT^3D7 [1]; [10])","PfCRT-mediated [3H]CQ transport, trans-stimulation (% PfCRTDd2 control) (PfCRT^Dd2 [2]; [9])","PfCRT-mediated [3H]CQ transport, trans-stimulation (% PfCRTDd2 control) (PfCRT^Dd2 [2]; [10])","[3H]CQ transport (% PfCRTDd2 control), trans-stimulation, PfCRTDd2 (PfCRT^Dd2 [2]; [11]) [% PfCRTDd2 control]","[3H]CQ transport (% PfCRTDd2 control), trans-stimulation, PfCRTDd2 (PfCRT^Dd2 [2]; [12]) [% PfCRTDd2 control]","PfCRT-mediated [3H]CQ transport, trans-stimulation (% PfCRTEcu1110 control) (PfCRT^Ecu1110 [3]; [9])","PfCRT-mediated [3H]CQ transport, trans-stimulation (% PfCRTEcu1110 control) (PfCRT^Ecu1110 [3]; [10])","[3H]CQ transport (% PfCRTDd2 control), trans-stimulation, PfCRTEcu1110 (PfCRT^Ecu1110 [3]; [11]) [% PfCRTEcu1110 control]","[3H]CQ transport (% PfCRTDd2 control), trans-stimulation, PfCRTEcu1110 (PfCRT^Ecu1110 [3]; [12]) [% PfCRTEcu1110 control]","PfCRT-mediated [3H]CQ transport, cis-inhibition (% PfCRTDd2 control) (PfCRT^Dd2 [4]; [test solute] = 0.5 mM)","PfCRT-mediated [3H]CQ transport, cis-inhibition (% PfCRTDd2 control) (PfCRT^Dd2 [4]; [test solute] = 1 mM)","PfCRT-mediated [3H]CQ transport, cis-inhibition (% PfCRTDd2 control) (PfCRT^Dd2 [4]; [test solute] = 2 mM)","PfCRT-mediated [3H]CQ transport, cis-inhibition (% PfCRTEcu1110 control) (PfCRT^Ecu1110 [5]; [test solute] = 0.5 mM)","PfCRT-mediated [3H]CQ transport, cis-inhibition (% PfCRTEcu1110 control) (PfCRT^Ecu1110 [5]; [test solute] = 1 mM)","PfCRT-mediated [3H]CQ transport, cis-inhibition (% PfCRTEcu1110 control) (PfCRT^Ecu1110 [5]; [test solute] = 2 mM)","[3H]CQ transport (% PfCRTEcu1110 control), cis-inhibition, PfCRTEcu1110 (PfCRT^Ecu1110 [5]; [test solute] = 2 mM) [% PfCRTEcu1110 control]",other results
VDPVN [VN-5],X,131 ± 4.6,181 ± 5.7,101 ± 3.5,112 ± 1.4,101 ± 3.5,112 ± 1.4,128 ± 3.6,136 ± 3.5,39 ± 1.5,41 ± 1.9,42 ± 2.7,30 ± 3.0,19 ± 0.3,52 ± 1.8,38 ± 2.6,27 ± 0.5,9.0 ± 0.2,"[3H]CQ transport (% PfCRTEcu1110 control), cis-inhibition, PfCRTEcu1110 (PfCRT^Ecu1110 [5]; [test solute] = 0.5 mM): 16 ± 0.4 % PfCRTEcu1110 control"
"CN(C)CCC(c1ccc(Cl)cc1)c1ccccn1 (stereo not shown) [CP, chlorpheniramine, reference compound]",,,,,,,,,,,,,,,,,,,"IC50 (PfCRT^3D7 [6]; drug on opposite side to [3H]VF-6, read-out: Trans-inhibition IC50 of [3H]VF-6 transport, PfCRT3D7): 12 ± 0.7 µM; IC50 (PfCRT^3D7 [6]; drug on same side as [3H]VF-6, read-out: Cis-inhibition IC50 of [3H]VF-6 transport, PfCRT3D7): 9.8 ± 0.5 µM; IC50 (PfCRT^Dd2 [7]; Cis-inhibition IC50 of [3H]VF-6 transport, PfCRTDd2, drug on same side as [3H]VF-6): 5 ± 1.1 µM; IC50 (PfCRT^Dd2 [7]; Trans-inhibition IC50 of [3H]VF-6 transport, PfCRTDd2, drug on opposite side to [3H]VF-6): 8.8 ± 0.3 µM; IC50 (PfCRT^Ecu1110 [8]; Cis-inhibition IC50 of [3H]VF-6 transport, PfCRTEcu1110, drug on same side as [3H]VF-6): 6.2 ± 0.3 µM; IC50 (PfCRT^Ecu1110 [8]; Trans-inhibition IC50 of [3H]VF-6 transport, PfCRTEcu1110, drug on opposite side to [3H]VF-6): 7.2 ± 0.2 µM"
DPVNF [DF-5],X,128 ± 3.1,158 ± 4.2,101 ± 3.5,113 ± 1.2,101 ± 3.5,113 ± 1.2,120 ± 2.4,128 ± 2.9,36 ± 1.3,39 ± 1.8,38 ± 3.1,27 ± 0.9,15 ± 0.5,40 ± 2.1,32 ± 1.6,21 ± 1.0,7.0 ± 0.1,
